According to patent US20240239799A1, “(S)-1-(5-((PYRIDIN-3-YL)THIO)PYRAZIN-2-YL)-4'H,6'H-SPIRO[PIPERIDINE-4,5'-PYRROLO [1,2-B]PYRAZOL]-4'-AMINE DERIVATIVES AND SIMILAR COMPOUNDS AS SHP2 INHIBITORS FOR THE TREATMENT OF E.G. CANCER” (C.N.C.C.S. S.C.A.R.L. COLLEZIONE NAZIONALE DEI COMPOSTI …, priority 2021, published 2024):

Assays:
[1] = molecular target: T1, SHP-2 enzyme (Met1-Leu525) (Homo sapiens, UniProt Q06124); assay: SHP2 inhibition enzymatic assay (DiFMUP substrate, IRS1 peptide activation); type: biochemical; conditions: 0.5 nM SHP-2, 500 nM IRS1 peptide, 75 μM DiFMUP; read-out: SHP2wt - IC50
T1 construct: synthetized by Origene, Met1-Leu525, cat #TP750155; purchased Origene TP750155
T1 sequence (Q06124 1-525): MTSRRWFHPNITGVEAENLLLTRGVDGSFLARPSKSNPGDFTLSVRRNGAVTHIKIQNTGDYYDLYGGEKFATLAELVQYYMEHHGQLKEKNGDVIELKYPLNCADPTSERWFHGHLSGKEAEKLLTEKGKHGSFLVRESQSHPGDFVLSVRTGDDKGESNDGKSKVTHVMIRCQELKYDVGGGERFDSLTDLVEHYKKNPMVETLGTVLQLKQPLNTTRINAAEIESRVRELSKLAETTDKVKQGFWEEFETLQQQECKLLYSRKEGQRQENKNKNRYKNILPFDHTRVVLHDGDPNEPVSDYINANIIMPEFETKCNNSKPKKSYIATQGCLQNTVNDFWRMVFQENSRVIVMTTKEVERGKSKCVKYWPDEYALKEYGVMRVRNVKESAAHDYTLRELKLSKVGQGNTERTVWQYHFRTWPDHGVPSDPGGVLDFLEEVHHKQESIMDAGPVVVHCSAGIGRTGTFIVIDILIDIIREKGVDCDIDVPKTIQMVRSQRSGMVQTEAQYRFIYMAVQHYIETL

[2] = molecular target: T2, SHP2 (Avi-G4SG4S-PTPN11(1-525)) (Homo sapiens, UniProt Q06124); assay: Binding kinetic assay by surface plasmon resonance (SPR); conditions: Biacore T200, single cycle kinetic, 1:1 Langmuir binding model; for koff: triplicate
T2 construct: (Avi-G4SG4S-PTPN11(1-525)); purchased Viva Biotech Ltd
T2 sequence (Q06124 1-525): T1 sequence (Q06124 1-525)
Experimental: A binding assay for measuring SHP2 inhibitors binding kinetic was developed using a Biacore T200 Instrument (Cytiva, Sweden). […] Data analysis was performed by Biacore T200 Evaluation software (Cytiva), and kinetic parameters were evaluated by a global fitting according to a 1:1 Langmuir binding model. Each molecule was tested in triplicate on separate flow channels.

[3] = tested on: phospho-ERK1/2 (Thr202/Tyr204) in KYSE-520 cells; assay: Phospho-ERK cellular assay (TR-FRET); type: cell-based; conditions: Homo sapiens, KYSE-520, 2 h, KYSE-520 cells, 2 h at 37° C.; read-out: pERK IC50
Outline: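 KYSE-520 cells plated overnight, then exposed to compound for 2 h at 37° C and lysed. Phospho-ERK1/2 (Thr202/Tyr204) detected by TR-FRET with Eu-cryptate and D2 antibodies after overnight incubation at rt. IC50 from four-parameter fit, normalised to DMSO (0%) and no-cell (100%) controls.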

SMILES | IC50 [1] [nM] | Residence time 1/koff SPR [2] [s] | koff [2] [s⁻¹] | IC50 [3] [nM]
Nc1nc(N2CCC3(CC2)Cn2ncc(Cl)c2[C@H]3N)cnc1Sc1ccnc(N)c1Cl [Example 5, (S)-1-(6-amino-5-((2-amino-3-chloropyridin-4-yl)thio)pyrazin-2-yl)-3′-chloro-4′H,6′H-spiro[piperidine-4,5′-pyrrolo[1,2-b]pyrazol]-4′-amine] | ≤ 50 | 17007 | 5.88e-05 | < 100
Nc1nccc(Sc2cnc(N3CCC4(CC3)Cn3nncc3[C@H]4N)cn2)c1Cl [Example 38, (S)-1-(5-((2-amino-3-chloropyridin-4-yl)thio)pyrazin-2-yl)-4′H,6′H-spiro[piperidine-4,5′-pyrrolo[1,2-c][1,2,3]triazol]-4′-amine] | ≤ 50 | 1062 | 0.000942 | < 100
Nc1nccc(Sc2cnc(N3CCC4(CC3)Cn3nccc3[C@H]4N)cn2)c1Cl [Example 6, (S)-1-(5-((2-amino-3-chloropyridin-4-yl)thio)pyrazin-2-yl)-4′H,6′H-spiro[piperidine-4,5′-pyrrolo[1,2-b]pyrazol]-4′-amine] | ≤ 50 | 2740 | 0.000365 | < 100
N[C@@H]1c2ccnn2CC12CCN(c1cnc(Sc3ccnc4c3OC[C@@H]3CCCN43)cn1)CC2 [Example 13, (S)-1-(5-(((S)-6a,7,8,9-tetrahydro-6H-pyrido[3,2-b]pyrrolo[1,2-d][1,4]oxazin-4-yl)thio)pyrazin-2-yl)-4′H,6′H-spiro[piperidine-4,5′-pyrrolo[1,2-b]pyrazol]-4′-amine] | ≤ 50 | 3333 | 0.0003 | < 100
Cc1cc2n(n1)CC1(CCN(c3cnc(Sc4ccnc(N)c4Cl)cn3)CC1)[C@@H]2N [Example 11, (S)-1-(5-((2-amino-3-chloropyridin-4-yl)thio)pyrazin-2-yl)-2′-methyl-4′H,6′H-spiro[piperidine-4,5′-pyrrolo[1,2-b]pyrazol]-4′-amine] | ≤ 50 | 29412 | 3.4e-05 | < 100
Nc1nccc(Sc2cnc(N3CCC4(CC3)Cn3ncc(F)c3[C@H]4N)cn2)c1Cl [Example 9, (S)-1-(5-((2-amino-3-chloropyridin-4-yl)thio)pyrazin-2-yl)-3′-fluoro-4′H,6′H-spiro[piperidine-4,5′-pyrrolo[1,2-b]pyrazol]-4′-amine] | ≤ 50 | 9615 | 0.000104 | < 100
Cc1nn2c(c1Cl)[C@@H](N)C1(CCN(c3cnc(Sc4ccnc(N)c4Cl)cn3)CC1)C2 [Example 14, (S)-1-(5-((2-amino-3-chloropyridin-4-yl)thio)pyrazin-2-yl)-3′-chloro-2′-methyl-4′H,6′H-spiro[piperidine-4,5′-pyrrolo[1,2-b]pyrazol]-4′-amine] | ≤ 50 | 14535 | 6.88e-05 | < 100
Nc1nccc(Sc2cnc(N3CCC4(CC3)Cn3ncc(Br)c3[C@H]4N)cn2)c1Cl [Example 8, (S)-1-(5-((2-amino-3-chloropyridin-4-yl)thio)pyrazin-2-yl)-3′-bromo-4′H,6′H-spiro[piperidine-4,5′-pyrrolo[1,2-b]pyrazol]-4′-amine] | ≤ 50 | 8621 | 0.000116 | < 100
Nc1nccc(Sc2cnc(N3CCC4(CC3)Cn3nc5c(c3[C@H]4N)COC5)c3cncn23)c1Cl [Example 29, (S)-1′-(5-((2-amino-3-chloropyridin-4-yl)thio)imidazo[1,5-a]pyrazin-8-yl)-1,8-dihydro-3H,6H-spiro[furo[3,4-d]pyrrolo[1,2-b]pyrazole-7,4′-piperidin]-8-amine] | ≤ 50 | 1715 | 0.000583 | > 500
Nc1nccc(Sc2cnc(N3CCC4(CC3)Cn3ncc(Cl)c3[C@H]4N)n3ccnc23)c1Cl [Example 18, (S)-1-(8-((2-amino-3-chloropyridin-4-yl)thio)imidazo[1,2-c]pyrimidin-5-yl)-3′-chloro-4′H,6′H-spiro[piperidine-4,5′-pyrrolo[1,2-b]pyrazol]-4′-amine] | ≤ 50 | 37175 | 2.69e-05 | < 100
N[C@@H]1c2ccnn2CC12CCN(c1cnc(Sc3ccn4ccnc4c3Cl)cn1)CC2 [Example 31, (S)-1-(5-((8-chloroimidazo[1,2-a]pyridin-7-yl)thio)pyrazin-2-yl)-4′H,6′H-spiro[piperidine-4,5′-pyrrolo[1,2-b]pyrazol]-4′-amine] | ≤ 50 | 12674 | 7.89e-05 | < 100
Cn1cc2c(Cl)c(Sc3cnc(N4CCC5(CC4)Cn4nccc4[C@H]5N)n4ccnc34)ccc2n1 [Example 16, (S)-1-(8-((4-chloro-2-methyl-2H-indazol-5-yl)thio)imidazo[1,2-c]pyrimidin-5-yl)-4′H,6′H-spiro[piperidine-4,5′-pyrrolo[1,2-b]pyrazol]-4′-amine] | ≤ 50 | 16026 | 6.24e-05 | < 100
Nc1nccc(Sc2cnc(N3CCC4(CC3)Cn3nc5c(c3[C@H]4N)CCC5)c3cncn23)c1Cl [Example 21, (S)-1′-(5-((2-amino-3-chloropyridin-4-yl)thio)imidazo[1,5-a]pyrazin-8-yl)-1,2,3,8-tetrahydro-6H-spiro[cyclopenta[d]pyrrolo[1,2-b]pyrazole-7,4′-piperidin]-8-amine] | ≤ 50 | 12903 | 7.75e-05 | < 100
Cc1cc2n(n1)CC1(CCN(c3ncc(Sc4ccnc(N)c4Cl)n4cncc34)CC1)[C@@H]2N [Example 23, (S)-1-(5-((2-amino-3-chloropyridin-4-yl)thio)imidazo[1,5-a]pyrazin-8-yl)-2′-methyl-4′H,6′H-spiro[piperidine-4,5′-pyrrolo[1,2-b]pyrazol]-4′-amine] | ≤ 50 | 6536 | 0.000153 | < 100
Nc1nccc(Sc2cnc(N3CCC4(CC3)Cn3nc5c(c3[C@H]4N)COC5)cn2)c1Cl [Example 27, (S)-1′-(5-((2-amino-3-chloropyridin-4-yl)thio)pyrazin-2-yl)-1,8-dihydro-3H,6H-spiro[furo[3,4-d]pyrrolo[1,2-b]pyrazole-7,4′-piperidin]-8-amine] | ≤ 50 | 30303 | 3.3e-05 | < 100
